In ChEMBL document CHEMBL1144356 (J Med Chem, 2005):

Assays:
[1] = molecular target: T1, Peroxisome proliferator-activated receptor delta (Homo sapiens, UniProt Q03181); test: In vitro binding affinity for PPAR-delta
T1 sequence (Q03181 whole entry): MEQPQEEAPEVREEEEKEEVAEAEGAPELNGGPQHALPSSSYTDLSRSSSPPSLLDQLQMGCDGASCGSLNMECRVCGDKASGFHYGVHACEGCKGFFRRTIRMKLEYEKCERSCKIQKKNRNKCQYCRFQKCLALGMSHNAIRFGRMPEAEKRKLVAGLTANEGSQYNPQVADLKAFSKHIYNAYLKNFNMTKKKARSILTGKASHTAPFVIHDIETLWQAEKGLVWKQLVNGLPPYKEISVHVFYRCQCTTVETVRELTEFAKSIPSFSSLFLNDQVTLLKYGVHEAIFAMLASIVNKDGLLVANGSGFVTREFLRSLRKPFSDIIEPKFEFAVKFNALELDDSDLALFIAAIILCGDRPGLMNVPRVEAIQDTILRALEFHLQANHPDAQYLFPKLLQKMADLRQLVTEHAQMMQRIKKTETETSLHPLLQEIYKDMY

Canis familiaris [2] = test: Effect on cholesterol lowering in male Beagle dog at an oral dose of 0.1 mkd for 7 days
Cricetinae gen. sp. [3] = test: Effect at an oral dose of 1 mg/kg/day for 14 days on serum cholesterol level of hamster; assay type: functional, Cricetulus griseus
[4] = molecular target: T2, Peroxisome proliferator-activated receptor alpha (Homo sapiens, UniProt Q07869); test: Effective concentration against human PPAR-alpha in Gal4 transactivation assay; assay type: functional
T2 sequence (Q07869 whole entry): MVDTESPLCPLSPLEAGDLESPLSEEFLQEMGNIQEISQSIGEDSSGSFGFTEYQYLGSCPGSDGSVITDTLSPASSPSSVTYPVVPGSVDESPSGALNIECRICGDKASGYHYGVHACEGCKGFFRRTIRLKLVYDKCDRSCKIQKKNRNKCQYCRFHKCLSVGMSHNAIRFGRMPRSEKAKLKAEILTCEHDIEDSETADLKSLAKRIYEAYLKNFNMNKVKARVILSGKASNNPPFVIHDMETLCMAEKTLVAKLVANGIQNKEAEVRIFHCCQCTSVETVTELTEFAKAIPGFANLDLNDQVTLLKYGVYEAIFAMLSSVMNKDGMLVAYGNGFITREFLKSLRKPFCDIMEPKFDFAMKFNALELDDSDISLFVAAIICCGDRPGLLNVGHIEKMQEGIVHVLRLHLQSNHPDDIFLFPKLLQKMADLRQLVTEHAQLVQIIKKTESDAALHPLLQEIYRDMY

Canis familiaris [5] = test: Effect on cholesterol lowering in male Beagle dog at an oral dose of 0.01 mkd for 15 days
Canis familiaris [6] = test: Effect on cholesterol lowering in male Beagle dog at an oral dose of 0.3 mkd for 3 days with 4 mkd simavastatin
Canis familiaris [7] = test: Effect on cholesterol lowering in male Beagle dog at an oral dose of 0.1 mkd for 15 days
Cricetinae gen. sp. [8] = test: Effect at an oral dose of 0.3 mg/kg/day for 14 days on serum cholesterol level of hamster; assay type: functional, Cricetulus griseus
Canis familiaris [9] = test: Effect on cholesterol lowering in male Beagle dog at an oral dose of 0.01 mkd for 7 days
[10] = molecular target: T3, Peroxisome proliferator-activated receptor gamma (Homo sapiens, UniProt P37231); test: In vitro binding affinity for PPAR-gamma
T3 sequence (P37231 whole entry): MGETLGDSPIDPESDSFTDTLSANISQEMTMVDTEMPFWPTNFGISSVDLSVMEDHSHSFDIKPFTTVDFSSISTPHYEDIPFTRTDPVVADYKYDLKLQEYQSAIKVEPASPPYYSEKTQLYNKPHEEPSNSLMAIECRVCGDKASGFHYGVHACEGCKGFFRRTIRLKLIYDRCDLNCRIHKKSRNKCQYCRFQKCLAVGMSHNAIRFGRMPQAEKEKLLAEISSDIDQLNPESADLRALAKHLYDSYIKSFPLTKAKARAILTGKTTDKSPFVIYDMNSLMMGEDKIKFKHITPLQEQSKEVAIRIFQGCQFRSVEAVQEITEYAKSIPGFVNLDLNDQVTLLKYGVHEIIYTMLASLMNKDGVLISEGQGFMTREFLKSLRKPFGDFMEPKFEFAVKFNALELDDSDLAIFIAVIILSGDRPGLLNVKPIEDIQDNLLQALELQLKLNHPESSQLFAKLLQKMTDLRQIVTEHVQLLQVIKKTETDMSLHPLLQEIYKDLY

Canis familiaris [11] = test: Effect on cholesterol lowering in male Beagle dog at an oral dose of 0.3 mkd for 7 days
Cricetinae gen. sp. [12] = test: Effect at an oral dose of 1 mg/kg/day for 14 days on serum triglyceride level of hamster; assay type: functional, Cricetulus griseus
Canis familiaris [13] = test: Effect on cholesterol lowering in male Beagle dog at an oral dose of 0.3 mkd for 10 days
Canis familiaris [14] = test: Effect on cholesterol lowering in male Beagle dog at an oral dose of 0.3 mkd for 7 days with 4 mkd simavastatin
Canis familiaris [15] = test: Effect on cholesterol lowering in male Beagle dog at an oral dose of 0.3 mkd for 15 days with 4 mkd simavastatin
Canis familiaris [16] = test: Effect on cholesterol lowering in male Beagle dog at an oral dose of 0.3 mkd for 3 days
Canis familiaris [17] = test: Effect on cholesterol lowering in male Beagle dog at an oral dose of 0.03 mkd for 7 days
Cricetinae gen. sp. [18] = test: Effect at an oral dose of 0.1 mg/kg/day for 14 days on serum cholesterol level of hamster; assay type: functional, Cricetulus griseus
Canis familiaris [19] = test: Effect on cholesterol lowering in male Beagle dog at an oral dose of 0.01 mkd for 10 days
Cricetinae gen. sp. [20] = test: Effect at an oral dose of 0.1 mg/kg/day for 14 days on serum triglyceride level of hamster; assay type: functional, Cricetulus griseus
Canis familiaris [21] = test: Effect on cholesterol lowering in male Beagle dog at an oral dose of 0.01 mkd for 3 days
Canis familiaris [22] = test: Effect on cholesterol lowering in male Beagle dog at an oral dose of 0.03 mkd for 10 days
Cricetinae gen. sp. [23] = test: Effect at an oral dose of 0.3 mg/kg/day for 14 days on serum triglyceride level of hamster; assay type: functional, Cricetulus griseus
Canis familiaris [24] = test: Effect on cholesterol lowering in male Beagle dog at an oral dose of 0.1 mkd for 3 days
Canis familiaris [25] = test: Effect on cholesterol lowering in male Beagle dog at an oral dose of 0.1 mkd for 10 days
[26] = In vitro binding affinity for PPAR-alpha; set-up: species or system Homo sapiens

CC[C@@]1(C(=O)O)Cc2cc(OCCCOc3ccc(OC(F)(F)F)cc3Cl)ccc2O1 showed an IC50 [1] of over 15000 nM, a TC (Canis familiaris [2]) of -18% and a TC (Cricetinae gen. sp. [3]) of -42%. For the same compound, the EC50 [4] was 2 nM, the TC (Canis familiaris [5]) was -21% and the TC (Canis familiaris [6]) was -14.2%. The TC (Canis familiaris [7]) was -22.1%, the TC (Cricetinae gen. sp. [8]) was -30% and the TC (Canis familiaris [9]) was -7.2%. The IC50 [10] was over 15000 nM, the TC (Canis familiaris [11]) was -17.4% and the TG (Cricetinae gen. sp. [12]) was -43.65%. The TC (Canis familiaris [13]) was -20.5%, the TC (Canis familiaris [14]) was -27.8% and the TC (Canis familiaris [15]) was -39.7%. For the same compound, the TC (Canis familiaris [16]) was -10.1%, the TC (Canis familiaris [17]) was -11.2% and the TC (Cricetinae gen. sp. [18]) was -15%. For the same compound, the TC (Canis familiaris [19]) was -11.7%, the TG (Cricetinae gen. sp. [20]) was -11.78% and the TC (Canis familiaris [21]) was -6.7%. For the same compound, the TC (Canis familiaris [22]) was -17.9%, the TG (Cricetinae gen. sp. [23]) was -31.85% and the TC (Canis familiaris [24]) was -7.5%. The TC (Canis familiaris [25]) was -22.1% and the IC50 [26] was 6 nM.
